Experimental data taken from the supplement of paper PMC10307832.

Key:
Test in all cases: relative viability (nuclei count vs DMSO), 5 days (fraction); higher = more cells survive
[1] = tested on: NCI-H1755; conditions: first compound 8 µM
Procedure, shortened: (§1)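 Relative viability divides the nuclei count in treated wells by that in vehicle wells. Lung cancer cell lines were seeded in 1536-well plates, dosed by pin tool the next day, and fixed and stained after 5 days in one step with final 0.05% Triton X-100, 1% formaldehyde and 1 ug/ml Hoechst. Dosing was a single drug or a fixed anchor-drug dose plus five library-drug doses (not always all listed) in √10 steps, and values are medians of duplicate plates imaged at 4×.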

[2] = tested on: NCI-H2009
Procedure, shortened: as §1

[3] = tested on: NCI-H1734
Procedure, shortened: as §1

[4] = tested on: NCI-H358
Procedure, shortened: as §1

[5] = tested on: SW 1573
Procedure, shortened: as §1

[6] = tested on: NCI-H1650
Procedure, shortened: as §1

[7] = tested on: NCI-H520
Procedure, shortened: as §1

[8] = tested on: LK-2
Procedure, shortened: as §1

[9] = tested on: BEN
Procedure, shortened: as §1

[10] = tested on: NCI-H2405
Procedure, shortened: as §1

[11] = tested on: NCI-H2347
Procedure, shortened: as §1

[12] = tested on: NCI-H1355
Procedure, shortened: as §1

SMILES: O=c1[nH]c2ccccc2n1C1CCN(CCCC(c2ccc(F)cc2)c2ccc(F)cc2)CC1 [Pimozide] + COc1cc2c(Oc3ccc(NC(=O)C4(C(=O)Nc5ccc(F)cc5)CC4)cc3F)ccnc2cc1OCCCN1CCOCC1 [Foretinib] (partner 0.25 µM)
- relative viability [1]: 0.812
- relative viability ([2]; first compound 0.08 µM): 1.24
- relative viability ([2]; first compound 0.253 µM): 1.12
- relative viability ([2]; first compound 0.8 µM): 1.19
- relative viability ([2]; first compound 2.53 µM): 1.09
- relative viability ([2]; first compound 8 µM): 1.13
- relative viability ([3]; first compound 0.08 µM): 0.77
- relative viability ([3]; first compound 0.253 µM): 0.767
- relative viability ([3]; first compound 2.53 µM): 0.883
- relative viability ([3]; first compound 8 µM): 0.834
- relative viability ([4]; first compound 0.08 µM): 0.671
- relative viability ([4]; first compound 0.253 µM): 0.661
- relative viability ([4]; first compound 0.8 µM): 0.578
- relative viability ([4]; first compound 2.53 µM): 0.562
- relative viability ([4]; first compound 8 µM): 0.695
- relative viability ([5]; first compound 0.08 µM): 0.803
- relative viability ([5]; first compound 0.253 µM): 0.946
- relative viability ([5]; first compound 0.8 µM): 0.86
- relative viability ([5]; first compound 2.53 µM): 0.892
- relative viability ([5]; first compound 8 µM): 1.04
- relative viability ([6]; first compound 0.08 µM): 0.72
- relative viability ([6]; first compound 0.253 µM): 1.23
- relative viability ([6]; first compound 0.8 µM): 0.959
- relative viability ([6]; first compound 2.53 µM): 1.17
- relative viability ([6]; first compound 8 µM): 0.933
- relative viability ([7]; first compound 0.08 µM): 0.886
- relative viability ([7]; first compound 0.253 µM): 0.779
- relative viability ([7]; first compound 0.8 µM): 0.618
- relative viability ([7]; first compound 2.53 µM): 0.916
- relative viability ([7]; first compound 8 µM): 0.898
- relative viability ([8]; first compound 0.08 µM): 1.65
- relative viability ([8]; first compound 0.253 µM): 0.98
- relative viability ([8]; first compound 2.53 µM): 0.875
- relative viability ([8]; first compound 8 µM): 1.24
- relative viability ([9]; first compound 0.08 µM): 0.624
- relative viability ([9]; first compound 0.253 µM): 0.768
- relative viability ([9]; first compound 0.8 µM): 0.618
- relative viability ([9]; first compound 2.53 µM): 0.581
- relative viability ([9]; first compound 8 µM): 0.783
- relative viability ([10]; first compound 0.08 µM): 1.03
- relative viability ([10]; first compound 0.253 µM): 1.02
- relative viability ([10]; first compound 0.8 µM): 1.04
- relative viability ([10]; first compound 2.53 µM): 0.961
- relative viability ([10]; first compound 8 µM): 0.838
- relative viability ([11]; first compound 0.08 µM): 0.883
- relative viability ([11]; first compound 0.253 µM): 0.622
- relative viability ([11]; first compound 0.8 µM): 0.964
- relative viability ([11]; first compound 2.53 µM): 1.35
- relative viability ([11]; first compound 8 µM): 1.07
- relative viability ([12]; first compound 0.08 µM): 0.808
- relative viability ([12]; first compound 0.253 µM): 0.923
- relative viability ([12]; first compound 0.8 µM): 0.888
- relative viability ([12]; first compound 2.53 µM): 0.886
- relative viability ([12]; first compound 8 µM): 1
